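In this assay, cells in 96-well plates receive the compound at five concentrations for 48 hours. Endpoints are linearly interpolated between the surrounding concentrations. TGI is the concentration that stops growth completely.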
What was measured:
Assay in all cases: NCI tumour cell line growth inhibition, 48 h
[1] = system: 786-0 renal
[2] = system: A498 renal
[3] = system: A549 NSCLC
[4] = system: ACHN renal
[5] = system: BT-549 breast
[6] = system: CAKI-1 renal
[7] = system: CCRF-CEM leukemia
[8] = system: COLO 205 colon
[9] = system: DU-145 prostate
[10] = system: EKVX NSCLC
[11] = system: HCT-116 colon
[12] = system: HCT-15 colon
[13] = system: HOP-62 NSCLC
[14] = system: HOP-92 NSCLC
[15] = system: HS 578T breast
[16] = system: HT29 colon
[17] = system: IGROV1 ovarian
[18] = system: K-562 leukemia
[19] = system: KM12 colon
[20] = system: LOX IMVI melanoma
[21] = system: M14 melanoma
[22] = system: MALME-3M melanoma
[23] = system: MCF7 breast
[24] = system: MDA-MB-231 breast
[25] = system: MDA-MB-435
[26] = system: MOLT-4 leukemia
[27] = system: NCI-H226 lung
[28] = system: NCI-H23 lung
[29] = system: NCI-H460 lung
[30] = system: NCI-H522 lung
[31] = system: NCI/ADR-RES ovarian
[32] = system: OVCAR-3 ovarian
[33] = system: OVCAR-4 ovarian
[34] = system: OVCAR-5 ovarian
[35] = system: OVCAR-8 ovarian
[36] = system: PC-3 prostate
[37] = system: RPMI-8226 leukemia
[38] = system: RXF 393 renal
[39] = system: SF-268 CNS
[40] = system: SF-295 CNS
[41] = system: SF-539 CNS
[42] = system: SK-MEL-2 melanoma
[43] = system: SK-MEL-28 melanoma
[44] = system: SK-MEL-5 melanoma
[45] = system: SK-OV-3 ovarian
[46] = system: SN12C renal
[47] = system: SNB-19 CNS
[48] = system: SNB-75 CNS
[49] = system: SW-620 colon
[50] = system: T-47D breast
[51] = system: TK-10 renal
[52] = system: U251 CNS
[53] = system: UACC-257 melanoma
[54] = system: UACC-62 melanoma

COc1cc2c(cc1O)-c1c(cnn1-c1ccc([N+](=O)[O-])cc1)CCC2
TGI [1]: > 100 µM | TGI [2]: 80.3 µM | TGI [3]: 42.4 µM | TGI [4]: 14.6 µM | TGI [5]: 76.1 µM | TGI [6]: 38.5 µM | TGI [7]: 30.6 µM | TGI [8]: 38.1 µM | TGI [9]: > 100 µM | TGI [10]: 80.5 µM | TGI [11]: 71.4 µM | TGI [12]: 30.5 µM | TGI [13]: > 100 µM | TGI [14]: > 100 µM | TGI [15]: 81.8 µM | TGI [16]: 35.6 µM | TGI [17]: 18.7 µM | TGI [18]: > 100 µM | TGI [19]: 31.7 µM | TGI [20]: 26.5 µM | TGI [21]: 49.6 µM | TGI [22]: 29.2 µM | TGI [23]: > 100 µM | TGI [24]: 33.2 µM | TGI [25]: 48.6 µM | TGI [26]: 6.2 µM | TGI [27]: 47.5 µM | TGI [28]: 41.9 µM | TGI [29]: > 100 µM | TGI [30]: 40.9 µM | TGI [31]: 42.7 µM | TGI [32]: 55.2 µM | TGI [33]: > 100 µM | TGI [34]: 61.2 µM | TGI [35]: 50.3 µM | TGI [36]: 58.7 µM | TGI [37]: 16.6 µM | TGI [38]: > 100 µM | TGI [39]: > 100 µM | TGI [40]: 82.5 µM | TGI [41]: 33.4 µM | TGI [42]: 37.4 µM | TGI [43]: > 100 µM | TGI [44]: 26.2 µM | TGI [45]: > 100 µM | TGI [46]: 14.7 µM | TGI [47]: > 100 µM | TGI [48]: > 100 µM | TGI [49]: 91.3 µM | TGI [50]: > 100 µM | TGI [51]: 32.6 µM | TGI [52]: 24.9 µM | TGI [53]: 52 µM | TGI [54]: 8.42 µM

Reference: PubChem BioAssay (NCI)
